The values below are quoted from earlier work in patent US20090197966A1, “Use of Hypothermia Inducing Drugs” (priority 2006, published 2009).

In this data set the test system is TRPV1 receptor. Particulars: systemic administration.

Where two headings read alike, the source gives them in different places.

As for `COc1cc(CNC(=O)CCCC/C=C/C(C)C)ccc1O` [capsaicin, 8-methyl-N-vallilyl-6-nonenamide], the hypothermic response entry is, setting by setting: (mammals) “dramatic hypothermic response”; (mice lacking the TRPV1 gene) “absent”.
